Assay results reported in ChEMBL document CHEMBL4828717, “Synthetic cajaninstilbene acid derivatives eradicate methicillin-resistant Staphylococcus aureus persisters and biofilms” (Eur J Med Chem, 2021).
The source made the active and inactive calls. No cut-off for these calls is given here.

Assays:
[1] = system: Staphylococcus aureus; assay: Antibacterial activity against methicillin resistant Staphylococcus aureus ATCC 62202 assessed as reduction in microbial growth after 16 to 18 hrs by microbroth dilution method; assay type: functional; conditions: time 16-18 hrs
[2] = system: Staphylococcus aureus; assay: Antibacterial activity against methicillin resistant Staphylococcus aureus ATCC49025 assessed as reduction in microbial growth after 16 to 18 hrs by microbroth dilution method; assay type: functional; conditions: time 16-18 hrs
[3] = system: Staphylococcus aureus; assay: Antibacterial activity against methicillin resistant Staphylococcus aureus ATCC49008 assessed as reduction in microbial growth after 16 to 18 hrs by microbroth dilution method; assay type: functional; conditions: time 16-18 hrs
[4] = system: Escherichia coli; assay: Antibacterial activity against Escherichia coli ATCC25922 assessed as reduction in microbial growth after 16 to 18 hrs by microbroth dilution method; assay type: functional; conditions: ATCC 25922, time 16-18 hrs
[5] = system: Pseudomonas aeruginosa; assay: Antibacterial activity against Pseudomonas aeruginosa ATCC27853 assessed as reduction in microbial growth after 16 to 18 hrs by microbroth dilution method; assay type: functional; conditions: time 16-18 hrs
[6] = Cytotoxicity against mouse RAW264.7 cells assessed as cell viability at 10 ug/ml measured after 24 hrs by MTT assay; assay type: cell-based; conditions: RAW264.7 cells, at 10 µg/mL, read-out: Activity
[7] = system: L02; assay: Cytotoxicity against human L02 cells assessed as cell viability at 10 ug/ml measured after 24 hrs by MTT assay; assay type: cell-based; conditions: l02, 24 h, dose 10 µg/ml
[8] = system: Cell membrane; assay: Induction of cell membrane permeabilization in methicillin resistant Staphylococcus aureus ATCC 43300 assessed as fluorescence intensity at 2 times MIC measured after 30 mins by propidium iodide staining based fluorescence assay
[9] = system: Cell membrane; assay: Induction of cell membrane depolarization in methicillin resistant Staphylococcus aureus ATCC 43300 measured up to 60 mins by DiOC5 dye based flow analyzer; conditions: time min <=60, TDE = time-dependent effect
[10] = system: Cell membrane; assay: Induction of cell membrane damage in Staphylococcus aureus ATCC 43300 at 1 times MIC after 90 mins by confocal laser scanning microscopy analysis
[11] = system: Staphylococcus aureus; assay: Induction of morphological changes in Staphylococcus aureus ATCC 43300 assessed as membrane damage at 8 times MIC after 90 mins by TEM analysis; assay type: functional, organism-based
[12] = system: Cell membrane; assay: Induction of cell membrane damage in methicillin resistant Staphylococcus aureus ATCC 43300 assessed as increase in ATP leakage […] at 0.5 times MIC measured every 30 mins for 6 hrs by Bactiter-glo assay; assay type: subcellular
[13] = system: Cell membrane; assay: Induction of cell membrane damage in methicillin resistant Staphylococcus aureus ATCC 43300 assessed as increase in ATP leakage […] at 4 times MIC measured every 30 mins for 6 hrs by Bactiter-glo assay
[14] = system: Staphylococcus aureus; assay: Synergistic antimicrobial activity against Staphylococcus aureus ATCC 43300 assessed as FICI at 2 times MIC after 24 hrs in presence of 4 ug/ml gentamicin by checkerboard assay; assay type: functional
[15] = Toxicity in BALB/c mouse infected with methicillin-resistant Staphylococcus aureus ATCC 43300 assessed as damage in lung at 50 to 200 mg/kg, sc administered every 24 hrs for 4 days by H&E staining based light microscopic analysis; assay type: organism-based; conditions: in vivo, dose 50-200 mg/kg

**Q.** Which results are given for CC(C)=CCc1c(OCCF)cc(/C=C/c2ccc(F)cc2)c(C(=O)O)c1O?
**A.** MIC [1]: 4 mg/L; MIC [2]: 4 mg/L; MIC [3]: 4 mg/L; MIC [4]: > 32 mg/L; MIC [5]: > 32 mg/L; viability at 24 h, 10 ug/ml [6]: > 60%; Activity [7]: Toxic; Activity [8]: Active; Activity [9]: Tde; Activity [10]: Active; Activity [11]: Active; Activity [12]: Active; Activity [13]: Active; fractional inhibitory concentration index (FICI) [14]: 0.75; Activity [15]: Non-Toxic
